Here are results for ten compounds from US7696408B2, “Method to enhance Agrobacterium-mediated transformation of plants” (Regents of the University of Minnesota, priority 1999, dated 2010).

For assay [1], the system named is soybean cot-node explants. Kind of assay: GUS transient expression on soybean cot-node explants after 5-day co-cultivation with Agrobacterium (T-DNA delivery). Type of assay: cell-based, Glycine max. The settings on record: for infection after co-cultivation (experiment #9): 400 mg/l in co-cultivation media, MN0901, AGL1 and LBA4404. From the text: For each seedling, the roots and the majority of the hypocotyl were removed approximately 3-5 mm below the cotyledonary node by cutting the hypocotyl with a scalpel (Hinchee et al., 1998). The two cotyledons were then separated by cutting vertically through the hypocotyl region resulting in two explants. The epicotyl was subsequently removed on both explants, including all primary leaves and shoot meristems, and both the axillary bud and cotyledonary node were wounded by cutting about 10 times with a scalpel blade perpendicular to the hypocotyl. After all explants in a set were wounded (about 50), they were placed in a 25×100 mm petri plate containing 50 ml co-culture suspension for 30 minutes or inoculated into the 25 ml co-cultivation/Agrobacterium suspension for 30 minutes. The explants were then cultured on an agar-solidified co-culture media (0.5%) either without the addition of a test agent (e.g., cysteine) in 15×100 mm petri plates on top a sterile Whatman®#1 filter paper; five explants per plate with adaxial side down. Five plates were stacked together and wrapped in Parafilm®M then incubated at either 22° C. or 25° C. for 5 days in the dark.
After 5 days, the explants were washed in a liquid shoot induction media (B5 salts, MSIII iron stock, 3% sucrose, 3 mM MES, and filter sterilized B5 vitamins, 1.67 mg/l BAP, 100 mg/l cefotaxime, and 500 mg/l ticarcillin; pH 5.6) to remove excess Agrobacterium. Seven to ten explants from each cysteine level were washed in liquid shoot induction medium and placed in GUS histochemical stain (Jefferson et al., 1987). These explants were scored for GUS transient expression. Five to ten explants from each group were imbedded into a single 25×100 mm petri plate with solid shoot induction media (0.8% agar and agent, e.g., 400 mg/l cysteine) containing PPT concentrations of 1.33 mg/l, 3.33 mg/l, or 5.0 mg/l for selection. The plates were then incubated in a growth chamber with a fluctuating temperature between 18° C.-30° C. under a 18 hours light/6 hours dark cycle at 90-150 μE/m^2s.
The level of infection was scored using the GUS gene as a phenotypic marker immediately after co-culture and again after 4 weeks in shoot induction media. As it can be difficult to score the explants after co-cultivation due to the variation among explants and, in some cases, a complete staining of the target tissues, 6 categories were formed to assess the success of infection: • 4) None=There were no GUS positive sectors on any of the explants; • 5) Very low=Not all explants have GUS positive sectors, however, some have discrete foci usually seen on the hypocotyl or cot-node region. • 6) Low=More than ¾ the explants have GUS positive sectors in discrete foci on the hypocotyl and the cot-node region, but the foci are not numerous (<20). • 7) Medium=More than ½ the explants have significant GUS positive sectors at the cot-node region and hypocotyl, some seen as long lines of cells or larger sectors. • 8) Good=More than ¾ the explants have significant staining at the hypocotyl, the entire cot-node region, and on the cotyledons. […] Almost all explants have regions that are completely GUS positive. To reduce bias, samples were chosen at random and the level of infection scored before noting the treatment conditions. Samples that were between two categories are marked accordingly; those samples that resembled one category more than another were marked with a capital “X” and the other with a lowercase “x”.
Wounded soybean cot-node explants prepared from the cultivar ‘Bert’ were co-cultivated with Agrobacterium on solid co-cultivation medium containing various levels of cysteine for 5 days.

Assay [2] relates to grape. To be noted: Perl et al., 1996; cited from earlier work.
The subject of assay [3] is Japonica rice meristem cultures. The settings on record: individually or in combination; Enríguez-Obregón et al., 1999; cited from earlier work.
The test system of assay [4] is soybean cot-node explants. Kind of assay: GUS+ sectors, shoots and shoot primordia after 28 days (4 weeks) on shoot induction medium with PPT (stable transformation). The settings on record: amended to solid co-cultivation media. Type of assay: cell-based, Glycine max. The procedure: After 5 days, the explants were washed in a liquid shoot induction media (B5 salts, MSIII iron stock, 3% sucrose, 3 mM MES, and filter sterilized B5 vitamins, 1.67 mg/l BAP, 100 mg/l cefotaxime, and 500 mg/l ticarcillin; pH 5.6) to remove excess Agrobacterium. Seven to ten explants from each cysteine level were washed in liquid shoot induction medium and placed in GUS histochemical stain (Jefferson et al., 1987). These explants were scored for GUS transient expression. Five to ten explants from each group were imbedded into a single 25×100 mm petri plate with solid shoot induction media (0.8% agar and agent, e.g., 400 mg/l cysteine) containing PPT concentrations of 1.33 mg/l, 3.33 mg/l, or 5.0 mg/l for selection. The plates were then incubated in a growth chamber with a fluctuating temperature between 18° C.-30° C. under a 18 hours light/6 hours dark cycle at 90-150 μE/m^2s. The explants were removed from the chamber after 14 days and transferred to fresh shoot induction media containing herbicide selection. During the transfer, the hypocotyl was carefully removed from the developing shoot mass and imbedded into the media with the differentiating tissue flush with the media surface. The plates were placed back into the growth chamber for an additional 2 weeks. At the 4 week time point, explants without de novo shoot production were discarded. The cotyledons were then removed from the differentiating tissue by cutting at the base of the node and the callus trimmed before transferring into shoot elongation media containing MS salts (murashige and Skoog, 1962), MSIII iron stock, 3% sucrose, 3 mM MES, 0.8% agar, and filter sterilized B5 vitamins, 50 mg/l asparagine, 100 mg/l pyroglutamic acid, 1 mg/l zeatin riboside, 0.1 mg/l indole-acetic acid, 0.5 mg/l GA3, 100 mg/l cefotaxime, 500 mg/l ticarcillin, 1.3-5 mg/l PPT; pH 5.6). Also at this time, a percentage of the explants were sliced into about 10 sections and stained for both GUS positive sectors and GUS positive shoots. Every 2 weeks the explants were transferred into new shoot elongation media after removing dead plant tissue and the bottom of the explant cut to encourage shoot elongation of transformed shoots. For the 4 week data, the minimum number of transformation events was recorded. Those explants with a GUS positive sector in the differentiating tissue giving rise to shoots were recorded with the number of transformation events in bold and italicized (FIGS. 2-5). Shoot data was obtained by recording the number of fully formed shoots seen on an explant. […] To determine the effect of adding cysteine to the co-cultivation medium on stable transformation, co-cultured explants were cultured for 28 days on a shoot-inducing medium containing the herbicide, phosphinothricin (PPT). During the 28 day incubation, the explants usually form de novo callus and shoots in the cot-node region in a structure referred to as a callus/shoot pad (FIG. 9). The callus/shoot pads were sliced in approximately 5 mm sections, immersed into GUS histochemical stain, and scored for GUS^+ sectors throughout the callus/shoot pad. […] The formation of transgenic shoot primordia and sectors extending into developing shoot tissues were also scored on 28 day sections of explants co-cultivated on 0 and 400 mg/l cysteine (FIG. 10A). Only those GUS^+ shoot primordia with obvious trichomes, which are characteristic to leaf tissue, or GUS^+ sectors originating and extending into the tissue at the base of developing shoots (referred to hereafter as differentiating tissue) were scored (FIG. 1A2).

[5] abbreviates: Bert, LBA4404 pTOK233, agent in solid co-cultivation media, concentrations of Table 1, 5-day incubation.
Setting [6] is: agent added to co-cultivation medium.

Like-named read-outs stand apart in the source and are kept apart here.

`O[C@H](CS)[C@H](O)CS` (racemic) [DTT, dithiothreitol]: the “GUS+ staining after co-cultivation” value in assay [1] (setting [5]) is “increases”. Also, the “Agrobacterium-mediated T-DNA transfer/delivery into cot-node cells” value is reported as “increased” in assay [1] (setting [6]) and “Increases” in assay [1] (agent added to co-cultivation medium, listed as dithiothreitol). Further, the “plant viability after Agrobacterium-mediated transformation of grape” value in assay [2] is listed as “increase plant viability”.

Consider `O=C1O[C@H]([C@@H](O)CO)C(O)=C1O` [Ascorbic acid], for which the “damage and viability of Japonica rice meristem cultures” value in assay [3] was “decreased damage and increased viability”.

For the compound `Cc1cc(-c2ccc(S(=O)(=O)O)cc2)c2ccc3c(-c4ccc(S(=O)(=O)O)cc4)cc(C)nc3c2n1` [Bathocuproine disulfonic acid], the “GUS+ staining after co-cultivation” value in assay [1] (setting [5]) is reported as “increases”. Besides, in assay [1] (setting [6]), the “Agrobacterium-mediated T-DNA transfer/delivery into cot-node cells” value is on record as “Increases”. In addition, the “GUS+ staining with metal chelator” value in assay [1] (range from added chelator to added copper or iron) is recorded as “significantly increased”.

Turning to `O=S(=O)(O)c1ccc(-c2ccnc3c2ccc2c(-c4ccc(S(=O)(=O)O)cc4)ccnc23)cc1` [Bathophenanthroline disulfonic acid], the “GUS+ staining after co-cultivation” value in assay [1] (setting [5]) is reported as “increases”. The “Agrobacterium-mediated T-DNA transfer/delivery into cot-node cells” value in assay [1] (setting [6]) is given as “Increases”.

As for `N[C@H](CS)C(=O)O` [D-cysteine], in assay [1] (setting [6]), the “Agrobacterium-mediated T-DNA transfer/delivery into cot-node cells” value is on record as “Increases”. Moreover, in assay [1] (amended to solid co-cultivation media), the “GUS+ foci at the 5-day interval” value is recorded as “increase”. Also, in assay [4], the “GUS+ foci at the 28-day interval” value is reported as “increase”.

For the compound `N[C@@H](CCC(=O)N[C@@H](CS)C(=O)NCC(=O)O)C(=O)O` [Glutathione], the “infection after co-cultivation (experiment #9)” value in assay [1] is listed as “did not result in an increase in infection”. Besides, in assay [1] (setting [5]), the “GUS+ staining after co-cultivation” value is recorded as “increases”. Further, in assay [1] (setting [6]), the “Agrobacterium-mediated T-DNA transfer/delivery into cot-node cells” value is “Increases”.

With `N[C@@H](CSSC[C@H](N)C(=O)O)C(=O)O` [L-cystine], the “Agrobacterium-mediated T-DNA transfer/delivery into cot-node cells” value in assay [1] (setting [6]) is on record as “Increases”.

Take `CSCC[C@H](N)C(=O)O` [Methionine]: the “infection after co-cultivation (experiment #9)” value in assay [1] is recorded as “did not result in an increase in infection”.

With `O=S([O-])([O-])=S.[Na+].[Na+]` [Na-thiosulfate, sodium thiosulfate], in assay [1], the “Agrobacterium-mediated T-DNA transfer/delivery into cot-node cells” value was “Increases” and the “GUS+ staining after co-cultivation” value is “increases”.

Turning to `O=[N+]([O-])[O-].[Ag+]` [silver nitrate], the “damage and viability of Japonica rice meristem cultures” value in assay [3] is “decreased damage and increased viability”.
